# Read-outs that look alike come from different tables or passages of the source.
# Columns and labels:
# [1] = target: T1, kappa opioid receptor (KOR) (Homo sapiens, UniProt P41145); test: cell-based; conditions: kOR cAMP IC50, CHO-K1 cells expressing kOR; after activation with dynorphin B
# T1 construct: host or cells: CHO-K1
# From the text: KOR cAMP Antagonist Assay
# mu opioid receptor (MOR) [2] = target: T2, mu opioid receptor (MOR) (Homo sapiens, UniProt P35372); test: MOR GTPγS agonist assay; format: biochemical; design: host or cells: CHO-K1
# From the text: Membranes obtained from the stable cell lines over-expressing MOR were subjected to GTPγS assay using SPA beads (Perkin Elmer, Cat #RPNQ0001).
# mu opioid receptor (MOR) [3] = target: T2, mu opioid receptor (MOR); test: MOR cAMP antagonist assay; format: cell-based; design: host or cells: CHO-K1
# From the text: MOR cAMP Antagonist Assay
# mu opioid receptor (MOR) [4] = target: T2, mu opioid receptor (MOR); test: MOR cAMP agonist assay
# [5] = membranes of CHO cells over-expressing MOR, SPA beads, read-out: MOR GTPγS EC50
# T1 sequence (P41145 whole entry): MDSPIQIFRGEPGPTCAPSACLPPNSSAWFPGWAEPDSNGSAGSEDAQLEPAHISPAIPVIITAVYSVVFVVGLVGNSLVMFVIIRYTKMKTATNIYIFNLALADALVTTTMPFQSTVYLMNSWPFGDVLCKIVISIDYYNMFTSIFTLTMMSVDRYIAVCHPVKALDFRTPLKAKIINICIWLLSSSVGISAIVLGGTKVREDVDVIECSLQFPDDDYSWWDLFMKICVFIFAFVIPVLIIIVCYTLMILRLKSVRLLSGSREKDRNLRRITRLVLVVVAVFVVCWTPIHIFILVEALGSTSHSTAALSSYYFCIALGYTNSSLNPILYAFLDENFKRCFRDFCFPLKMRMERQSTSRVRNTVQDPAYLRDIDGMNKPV
# T2 sequence (P35372 whole entry): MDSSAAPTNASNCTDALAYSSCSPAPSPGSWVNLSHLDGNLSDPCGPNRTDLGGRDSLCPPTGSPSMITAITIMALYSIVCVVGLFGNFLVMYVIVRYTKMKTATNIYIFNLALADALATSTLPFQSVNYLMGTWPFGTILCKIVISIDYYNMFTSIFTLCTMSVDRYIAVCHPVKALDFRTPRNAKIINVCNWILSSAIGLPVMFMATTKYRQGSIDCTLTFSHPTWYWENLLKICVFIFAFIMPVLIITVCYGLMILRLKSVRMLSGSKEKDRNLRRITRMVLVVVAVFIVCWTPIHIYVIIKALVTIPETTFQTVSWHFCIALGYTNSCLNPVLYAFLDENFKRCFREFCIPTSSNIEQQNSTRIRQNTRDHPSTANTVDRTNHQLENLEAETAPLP
Compound,IC50 [1] [nM],EC50 (mu opioid receptor (MOR) [2]; [5]) [nM],IC50 (mu opioid receptor (MOR) [3]) [nM],also measured
CN(C)[C@H](CNC(=O)c1cccc(Cl)c1)Cc1ccc(O)cc1Cl [Compound C-22],100 to 1000,< 100,> 1000,
Cc1cc(O)cc(C)c1C[C@@H](CNC(=O)c1ccc(C(F)(F)F)c(F)c1)N(C)C [Compound C-30],,< 100,< 100,
CN1Cc2cc(O)ccc2C[C@H]1CNC(=O)c1ccc(Cl)c(Cl)c1 [Compound C-54],,< 100,< 100,
"CN(C)[C@H](CNC(=O)c1ccc(Cl)c(Cl)c1)Cc1ccc(O)cc1Cl [Compound C-7, (S)-3,4-Dichloro-N-(3-(2-chloro-4-hydroxyphenyl)-2-(dimethylamino)propyl)benzamide]",,,< 100,
"CN(C)[C@H](CNC(=O)[C@@H]1C[C@]1(C)c1ccccc1)Cc1ccc(O)c(Cl)c1 [Compound B-55, (1R,2S)—N—((S)-3-(3-chloro-4-hydroxyphenyl)-2-(dimethylamino)-propyl)-2-methyl-2-phenylcyclopropane-1-carboxamide]",< 100,,< 100,
"CC(=O)Oc1cc(C)c(C[C@@H](CNC(=O)c2ccc(Cl)c(Cl)c2)N(C)C)c(C)c1 [Compound C-56, (S)-4-(3-(3,4-dichlorobenzamido)-2-(dimethylamino)propyl)-3,5-dimethylphenyl acetate]",,,< 100,
Cc1cc(O)cc(C)c1C[C@@H](CNC(=O)c1ccc(Cl)c(C(F)(F)F)c1)N(C)C [Compound C-27],,< 100,< 100,
Cc1cc(O)cc(C)c1C[C@@H](CNC(=O)c1cc2ccccc2cn1)N(C)C [Compound C-35],,< 100,< 100,
"CN(C)[C@H](CNC(=O)c1ccc(Br)c(Cl)c1)Cc1ccc(O)cc1Cl [Compound C-8, (S)-4-bromo-3-chloro-N-(3-(2-chloro-4-hydroxyphenyl)-2-(dimethylamino)propyl)benzamide]",,,< 100,
"Cc1ccc(C(=O)NC[C@H](Cc2ccc(O)cc2Cl)N(C)C)cc1C [Compound C-2, (S)—N-(3-(2-Chloro-4-hydroxyphenyl)-2-(dimethylamino)propyl)-3,4-dimethylbenzenamide]",,,< 100,
"C[C@H](CC(=O)NC[C@H](Cc1ccc2c(c1)CC(=O)N2)N(C)C)c1ccccc1 [Compound A-22, (R)—N—((S)-2-(dimethylamino)-3-(2-oxoindolin-5-yl)propyl)-3-phenylbutanamide]",,< 100,< 100,
CN(C)[C@H](CNC(=O)c1cc(F)c(Cl)c(F)c1)Cc1ccc(O)cc1Cl [Compound C-1],,,< 100,
"O=C(NC[C@H](Cc1ccc2[nH]ncc2c1)N1CCCC1)c1ccc(Cl)c(Cl)c1 [Compound C-59, (S)—N-(3-(1H-indazol-5-yl)-2-(pyrrolidin-1-yl)propyl)-3,4-dichlorobenzamide]",,100 to 1000,< 100,
CNC(=O)c1ccc(C[C@@H](CNC(=O)c2ccc(C)cc2C)N(C)C)cc1F [Compound C-40],> 1000,< 100,< 100,
"O=C(NC[C@@H]1Cc2ccc(O)cc2CN1)c1ccc(Cl)c(Cl)c1 [Compound C-60, (S)-3,4-dichloro-N-((7-hydroxy-1,2,3,4-tetrahydroisoquinolin-3-yl)methyl)benzamide]",,< 100,< 100,
"Cc1cc(C[C@@H](CNC(=O)[C@@H]2C[C@]2(C)c2ccccc2)N(C)C)ccc1O [Compound B-42, (1R,2S)—N—((S)-2-(dimethylamino)-3-(4-hydroxy-3-methylphenyl)propyl)-2-methyl-2-phenylcyclopropane-1-carboxamide]",100 to 1000,,< 100,EC50 (mu opioid receptor (MOR) [4]): < 100 nM
"CN(C)[C@H](CNC(=O)c1ccccc1-c1ccccc1)Cc1ccc(O)cc1 [Compound C-66, (S)—N-(2-(dimethylamino)-3-(4-hydroxyphenyl)propyl)-[1,1′-biphenyl]-2-carboxamide]",100 to 1000,,,"EC50 (mu opioid receptor (MOR) [2]): > 1000 nM; IC50 (mu opioid receptor (MOR) [3]; CHO-K1 cells expressing mOR, after activation with DAMGO at the EC80, read-out: MOR cAMP IC50): > 1000 nM"
"Cc1cc(O)cc(C)c1C[C@@H](CNC(=O)c1ccc(C(F)(F)F)cc1)N(C)C [Compound C-32, (S)—N-(2-(dimethylamino)-3-(4-hydroxy-2,6-dimethylphenyl)propyl)-4-(trifluoromethyl)benzamide]",,< 100,100 to 1000,
"CN(C)[C@H](CNC(=O)c1ccc(Cl)c(Cl)c1)Cc1ccc(O)c(Cl)c1 [Compound C-61, (S)-3,4-dichloro-N-(3-(3-chloro-4-hydroxyphenyl)-2-(dimethylamino)propyl)benzamide]",,< 100,< 100,

Compound,IC50 [1] [nM],EC50 (mu opioid receptor (MOR) [2]; [5]) [nM],IC50 (mu opioid receptor (MOR) [3]) [nM],also measured
"Cc1cc(O)cc(C)c1C[C@@H](CNC(=O)c1ccc(Cl)c(Cl)c1)N(C)C [Compound C-24, (S)-3,4-dichloro-N-(2-(dimethylamino)-3-(4-hydroxy-2,6-dimethylphenyl)propyl)benzamide]",< 100,< 100,< 100,
Cc1cc(O)cc(C)c1C[C@@H](CNC(=O)c1ccc2occc2c1)N(C)C [Compound C-31],,< 100,< 100,
CCN(CC)[C@H](CNC(=O)c1ccc(Cl)c(Cl)c1)Cc1ccc2[nH]ncc2c1 [Compound C-64],,< 100,< 100,
"CN(C)[C@H](CNC(=O)[C@@H]1C[C@]1(C)c1ccccc1)Cc1ccc(O)c(F)c1 [Compound B-30, (1R,2S)—N—((S)-2-(dimethylamino)-3-(3-fluoro-4-hydroxyphenyl)propyl)-2-methyl-2-phenylcyclopropane-1-carboxamide]",< 100,,< 100,
Cc1cc(O)cc(C)c1C[C@@H](CNC(=O)c1ccc(C(F)(F)F)c(Cl)c1)N(C)C [Compound C-26],,< 100,< 100,
"Cc1cc(O)cc(C)c1C[C@@H](CNC(=O)c1cc(Cl)c(Cl)cc1F)N(C)C [Compound C-57, (S)-4,5-dichloro-N-(2-(dimethylamino)-3-(4-hydroxy-2,6-dimethylphenyl)propyl)-2-fluorobenzamide]",,< 100,< 100,
Cc1ccc(C(=O)NC[C@H](Cc2c(C)cc(O)cc2C)N(C)C)cc1C [Compound C-28],,< 100,< 100,
"Cc1cc(C[C@@H](CNC(=O)[C@@H]2C[C@]2(C)c2ccccc2)N(C)C)cc(C)c1O [Compound B-36, (1R,2S)—N—((S)-2-(dimethylamino)-3-(4-hydroxy-3,5-dimethylphenyl)propyl)-2-methyl-2-phenylcyclopropane-1-carboxamide]",< 100,,< 100,
CNC(=O)c1ccc(C[C@@H](CNC(=O)c2ccc(Cl)c(Cl)c2)N(C)C)cc1F [Compound C-39],,< 100,< 100,
"CN(C)[C@H](CNC(=O)[C@@H]1C[C@@]1(C)c1ccccc1)Cc1ccc(C(N)=O)cc1Cl [Compound B-6, 3-chloro-4-((S)-2-(dimethylamino)-3-((1R,2R)-2-methyl-2-phenylcyclopropane-1-carboxamido)propyl)benzamide]",100 to 1000,,,EC50 (mu opioid receptor (MOR) [4]): < 100 nM
"Cc1cc(O)cc(C)c1C[C@@H](CNC(=O)[C@@H]1C[C@]1(C)c1ccccc1)N(C)C [Compound B-47, (1R,2S)—N—((S)-2-(dimethylamino)-3-(4-hydroxy-2,6-dimethylphenyl)-propyl)-2-methyl-2-phenylcyclopropane-1-carboxamide]",,,< 100,EC50 (mu opioid receptor (MOR) [4]): < 100 nM
Cc1cc(O)cc(C)c1C[C@@H](CNC(=O)c1nccc2ccccc12)N(C)C [Compound C-34],,< 100,< 100,
"CNC(=O)c1ccc(C[C@@H](CNC(=O)[C@@H]2C[C@]2(C)c2ccccc2)N(C)C)cc1F [Compound B-46, 4-((S)-2-(dimethylamino)-3-((1R,2S)-2-methyl-2-phenylcyclopropane-1-carboxamido)propyl)-2-fluoro-N-methylbenzamide]",> 1000,,,EC50 (mu opioid receptor (MOR) [4]): < 100 nM
"Cc1cc(C(N)=O)cc(C)c1C[C@@H](CNC(=O)O[C@@H](C)c1ccccc1)N(C)C [Compound A-7, (S)-1-phenylethyl ((S)-3-(4-carbamoyl-2,6-dimethylphenyl)-2-(dimethylamino)propyl)carbamate]",100 to 1000,,,EC50 (mu opioid receptor (MOR) [4]): > 1000 nM
"CC(CC(=O)NC[C@H](Cc1ccc2c(c1)CC(=O)N2)N(C)C)c1ccccc1 (stereo in doubt) [Compound A-23, (S)—N—((S)-2-(dimethylamino)-3-(2-oxoindolin-5-yl)propyl)-3-phenylbutanamide]",,< 100,,"IC50 (mu opioid receptor (MOR) [3]; read-out: MOR cAMP IC50, CHO-K1 cells expressing mOR, after activation with DAMGO at the EC80): < 100 nM"
"CNC(=O)c1ccc(C[C@@H](CNC(=O)[C@@H]2C[C@@]2(C)c2ccccc2)N(C)C)cc1F [Compound B-2, 4-((S)-2-(dimethylamino)-3-((1R,2R)-2-methyl-2-phenylcyclopropane-1-carboxamido)propyl)-2-fluoro-N-methylbenzamide]",> 1000,,,EC50 (mu opioid receptor (MOR) [4]): < 100 nM
"Cc1cc(O)cc(C)c1C[C@@H](CNC(=O)[C@@H]1C[C@@]1(C)c1ccccc1)N(C)C [Compound B-13, (1R,2R)—N—((S)-2-(dimethylamino)-3-(4-hydroxy-2,6-dimethylphenyl)propyl)-2-methyl-2-phenylcyclopropane-1-carboxamide]",< 100,,,EC50 (mu opioid receptor (MOR) [4]): < 100 nM
"CN(C)[C@H](CNC(=O)[C@@H]1C[C@]1(C)c1ccccc1)Cc1ccc2[nH]ncc2c1 [Compound B-19, (1R,2S)—N—((S)-2-(dimethylamino)-3-(1H-indazol-5-yl)propyl)-2-methyl-2-phenylcyclopropane-1-carboxamide]",> 1000,,,EC50 (mu opioid receptor (MOR) [4]): < 100 nM
Cc1cc(O)cc(C)c1C[C@@H](CNC(=O)c1ccc2ccccc2c1)N(C)C [Compound C-33],,< 100,< 100,

# Source: patent publication US20210147343A1 (priority 2018, published 2021)
